According to patent US10278931B2, “Composition for treatment of inflammatory bowel disease and atopic dermatitis” (INNOPHARMASCREEN INC., priority 2015, dated 2019):

Tests used:
[1] = tested on: TSLP secretion from human mast cells (HMC-1 cells); test: TSLP secretion ELISA in PMACI-stimulated mast cells; type: cell-based; settings: PMACI-stimulated HMC-1 cells, ELISA
Procedure: (§1) (1) Cell culture: A human mast cell line (HMC-1) was cultured in an IMDM supplemented with 10% FBS at 37° C. and 5% CO2. Candidate materials were dissolved in DMSO, and then filtered using a 0.22 μm filter. The resulting candidate materials were diluted with DMSO and the HMC-1 cells were treated therewith.
(3) Enzyme-linked immunosorbent assay (ELISA): Mast cells (3×10^6 cells/ml) were stabilized for 1 hour, and then treated with 0.1 μM, 1 μM, and 10 μM of candidate materials, followed by treatment with PMACI for 8 hours. The mast cells were centrifuged to obtain supernatants. To measure the amount of TSLP secreted from the cells, ELISA was used. The ELISA was performed in 96-well plates coated with 1 μg/well of TSLP capture Ab. The coated plates were washed twice with PBS. The cells were treated with PBS containing 10% FBS for 2 hours. Thereafter, the cells were washed with PBS containing 0.05% Tween-20 (Sigma), and recombinant TSLP was used to draw a standard curve. Subsequently, the plates were exposed to a biotinylated-TSLP antibody, Avidin peroxidase, an ARTS substrate containing 30% H2O2, and then measured at 405 nm.

HMC-1 cells = test: Cytotoxicity (MTT-assay) in HMC-1 cells; type: cell-based, human; settings: 10 μM
Procedure: as §1
[…] After culturing, the medium was replaced by a fresh medium, 5 mg/ml of an MTT solution was then added thereto, and the mast cells were incubated at 37° C. for 4 hours. 250 DMSO was added to the mast cells, MTT formazan was extracted therefrom, and absorbance of each well was measured at 540 nm using an ELISA reader.

[2] = target: T1, human recombinant caspase-1 (Homo sapiens, UniProt P29466); test: Recombinant caspase-1 activity assay (kit); type: biochemical; settings: caspase-1 assay kit
T1 sequence (P29466 120-404): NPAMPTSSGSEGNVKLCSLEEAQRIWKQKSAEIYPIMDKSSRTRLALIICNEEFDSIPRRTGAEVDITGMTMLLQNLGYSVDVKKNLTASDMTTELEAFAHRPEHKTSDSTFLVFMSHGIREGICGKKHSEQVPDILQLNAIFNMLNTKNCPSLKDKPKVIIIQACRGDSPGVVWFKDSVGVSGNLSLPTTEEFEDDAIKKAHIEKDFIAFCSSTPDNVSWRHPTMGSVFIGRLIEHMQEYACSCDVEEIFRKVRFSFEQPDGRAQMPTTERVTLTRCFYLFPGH
Procedure: (4) Caspase-1 assay: Recombinant caspase-1 and a drug were allowed to react, and then activity measurement was performed using a caspase-1 assay kit (R&D Systems Inc., Minneapolis, Minn., USA).
Recombinant caspase-1 and a drug were allowed to react, and then activity was measured using a caspase-1 assay kit (R&D Systems Inc., Minneapolis, Minn., USA).

DSS-induced animal model = test: DSS-induced inflammatory bowel disease (enteritis) model; type: in vivo, C57BL/6 mice
Procedure: Six-week-old female SPF (Specific pathogen-free) C57BL/6 mice were purchased from DuPont Biotech. The mice were allowed to freely ingest a feed and water after an acclimation period of 1 week in an animal room of Hoseo University Safety Evaluation Center maintained at temperature of 21±3° C., humidity of 50±20%, and light/darkness cycle of 12 h/12 h. All procedures in the present animal experiment were conducted after approved by the Animal Experimental Ethics Committee of Hoseo University (HTRC-15-19, and HTRC-16-22(2)).
Dextran sodium sulfate (cat no 160110 by Mpbio. corn) as a colitis inducer was diluted to 3% concentration in drinking water and orally administered to mice to induce enteritis. The mice were divided into 6 groups and DW was administered to the animals of a control, and 1.0 mg/kg and 10 mg/kg of the test material were orally administered to the animals of the experimental groups once a day for […]. Sulfasalazine (100 mg/kg) dissolved in crude olive oil was orally administered once a day to the animals of a positive control. In acute cases, disease progression levels were examined after 5 days of administration. In chronic cases, disease progression levels were examined 15 days and 30 days after the 5 days of administration (reference: Toxicology Reports 2 (2015) 10391045-Caryophyllene attenuates dextran sulfate sodium-induced colitis in mice via modulation of gene expression associated mainly with colon inflammation).
Body weights were measured once for 5 days or more during the test period. The measured weights were quantified as 0 point if there was no difference compared with the normal control, 1 point for weight loss rate of 15%, 2 points for 510%, 3 points for 1015%, and 4 points for >15%. Feces observation was performed to examine the incidence of diarrhea, and the results thereof were quantified as scores (0, normal stool; 1, mildly soft stool; 2, very soft stool; 3, very soft stool (no regular shape); 4, watery stool).
Rectal tissues and blood were collected from 5 individuals for each of the autopsy times. Yuhan ketamine 50® (Yuhan Corporation, Korean) and Rompun (Bayer, USA) were mixed in a ratio of 3:1, and then used to anesthetize animals via muscular injection. Each anesthetized animal was subjected to laparotomy to collect blood from the abdominal artery, and after blood collection, the abdominal artery was cut and subjected to venesection and death to collect rectal tissue. The length and weight of the collected tissue were measured to calculate weight per 1 cm of the tissue. Some of the collected tissues were used in biopsy, and some thereof were frozen in liquid nitrogen and stored at −70° C. before analysis. […]

caspase-1 = target: T2, caspase-1 (Homo sapiens, UniProt P29466); test: Caspase-1 assay using HMC-1 cell extracts; type: cell-based
T2 construct: a caspase-1 assay was conducted using cell extracts; endogenous in cells; host or cells: HMC-1 (human mast cells)
T2 sequence (P29466 120-297 limits assumed): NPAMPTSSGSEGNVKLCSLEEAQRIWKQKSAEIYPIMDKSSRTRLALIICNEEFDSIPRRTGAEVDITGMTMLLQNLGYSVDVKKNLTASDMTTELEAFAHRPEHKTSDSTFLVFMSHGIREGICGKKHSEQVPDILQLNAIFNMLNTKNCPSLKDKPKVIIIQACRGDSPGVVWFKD
T2 sequence (P29466 317-404 limits assumed): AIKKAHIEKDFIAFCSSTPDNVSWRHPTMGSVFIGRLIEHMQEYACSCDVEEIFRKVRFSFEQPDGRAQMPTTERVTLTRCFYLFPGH

HaCat cells = test: Cytotoxicity (MTT-assay) in HaCat cells; type: cell-based, human
Procedure: as §1, with “skin” for “mast”, “(HaCat cells)” for “(HMC-1)”, “RPMI containing” for “an IMDM supplemented with”, “HaCat” for “HMC-1”
(2) Cytotoxicity (MTT-assay): After stabilizing HaCat cells (3×10^5 cells/ml) for 1 hour, they were treated with candidate materials variously beginning from a concentration of 10 μM, followed by treatment with Poly (I:C) for 8 hours. Then, the medium was replaced by a fresh medium, 5 mg/ml of an MTT solution was then added thereto, and the mast cells were incubated at 37° C. for 4 hours. 250 DMSO was added to the HaCat cells, MTT formazan was extracted therefrom, and absorbance of each well was measured at 540 nm using an ELISA reader.

[3] = tested on: balb/c mice with DNCB-induced atopic dermatitis; test: DNCB-induced atopic dermatitis model; type: in vivo; settings: 0.1% dexamethasone
Source text: (5) Reverse transcription-polymerase chain reaction (RT-PCR) quantitative real time PCR: Total RNA was isolated from cells and tissues, and cDNA was synthesized using a reverse transcriptase and was then reacted with cytokine primers to be analyzed, followed by PCR and real-time PCR. The RT-PCR products were subjected to electrophoresis using 1.5% agarose gel for analysis.
A. Experimental animal: 5-week-old male BALB/c mice obtained from. Daehan Biolink (Eumseong, Chungbuk) were adapted for 2 weeks in a clean animal breeding room (small animal room #2-302) at Hoseo University Safety Evaluation Center, set under environmental conditions: temperature of 22±3° C.; relative humidity of 50±20%; ventilation frequency of 10 to 15 times/hour, illumination for 12 hours; and illuminance of 150 Lux to 300 Lux, and then used in an experiment.
4 experimental animals were accommodated in each of polycarbonate cages (270×500×200 mm, KYERYONG SCIENCE). Feed (5053-Picolab Rodent 20, PMI Nutrition International) and drinking water (ultraviolet sterilized filtered water) were allowed to ingest freely. All procedures of the experiment were conducted after approved by the Ethics Committee of the Hoseo University Safety Evaluation Center (HTRC-15-19).
B. Dermatitis induction: Hairs on the back of each mouse were removed and maintained for 24 hours, and then 150 μl of a 1% 2,4-dinitrochlorobenzene(DNCB) solution (acetone: olive oil=3:1) was applied on the hair-removed site once a week for 3 weeks. After week 3, the DNCB solution was applied on the site twice a week for 3 weeks to induce atopic dermatitis.
C. Treatment: Mice were divided into 6 groups, and 0.5% DMSO was applied on animals as a control and 200 μl of each of 0.01 μM, 0.1 μM, and 1 μM test material was applied on animals as experimental groups for 3 weeks. 50 μl of 0.1% dexamethasone dissolved in a crude alcohol was applied on animals as a positive control at intervals of 2 days.
D. Biopsy: After application of the test material was completed, the dorsal skin of each experimental animal was incised under heart anesthesia, some of them were rapidly frozen using liquid nitrogen and stored at −70° C. before analysis, and the remainder was fixed with 10% neutral buffered formalin for 24 hours. The fixed tissues were prepared into slides through general tissue processing, and then subjected to hematoxylin & eosin (H&E) staining to measure the thickness of the epidermal layer. In addition, toluidine blue staining was performed to observe a quantitative change of mast cells. While the stained tissues were observed by an optical microscope, the thickness of the epidermal layer and the number of mast cells were obtained using an image analyzer (Olympus DP-21).
E. IgE level measurement: IgE concentration in blood was measured by (SHIBAYAGI, Japan) using serum collected when autopsy was performed. 50 μL of an IgE standard solution and the sample were placed in antibody-attached 96 wells and allowed to react for 2 hours, and then 50 μL of a biotin-conjugated anti-IgE antibody solution was added to each well and allowed to react for 2 hours. Thereafter, the resulting sample was reacted with a HRP-avidin solution for 1 hour and a chromogenic substrate (TBM) reagent for 20 minutes, and the reaction was stopped using a reaction stopper. Absorbance of the sample was measured at 450 nm using ELISA (Molecular devices Emax).

SMILES: COc1ccc(NS(=O)(=O)c2cccc(S(=O)(=O)c3cccc(S(=O)(=O)Nc4ccc(OC)cc4)c3)c2)cc1 [IPS-07002]
- TSLP secretion from mast cells [1]: significantly inhibited
- cytotoxicity (MTT-assay) (HMC-1 cells): did not exhibit cytotoxicity

SMILES: O=C([O-])CC(=O)NC12CC3CC(CC(C3)C1)C2.[Na+] [IPS-07003]
- TSLP secretion from mast cells [1]: significantly inhibited
- cytotoxicity (MTT-assay) (HMC-1 cells): did not exhibit cytotoxicity

SMILES: [H]/N=C(\N/C(=N/[H])Nc1ccc(Cl)cc1)NC(C)C [IPS-07004]
- recombinant caspase-1 activity [2]: inhibits
- enteritis inhibitory activity (ratio of enteric weight to enteric length, wt/cm) (DSS-induced animal model; 10 mg/kg oral, compared to DSS control): superior enteritis inhibitory activity
- melena (DSS-induced animal model; compared to the DSS-induced group, oral): significantly decreased
- caspase-1 activity in HMC-1 cells (caspase-1): inhibits
- cytotoxicity (MTT-assay) (HaCat cells): no cytotoxicity

SMILES: C[C@@H]1C[C@H]2[C@@H]3CCC4=CC(=O)C=C[C@]4(C)[C@@]3(F)[C@@H](O)C[C@]2(C)[C@@]1(O)C(=O)CO [dexamethasone, reference compound]
- epidermal thickness ([3]; DNCB group 87.1±13.0, normal 24.5±10.3): 39.9±9.4 μm
- blood IgE level ([3]; DNCB group 790.0±151.8, no statistical significance): 703.8±86.5
